The subject of test [1] is Botrytis cinerea. In words: Eggplant grey mold. The format is in vivo. Further details: scale not given here. The following applies: inoculated 24 h later, rated after 3-4 days; for Disease Control Rating at 20 ppm: eggplant sprayed with 20 ppm; for Disease Control Rating at 100 ppm: eggplant sprayed with 100 ppm; for Disease Control Rating at 500 ppm: eggplant sprayed with 500 ppm. The protocol:
Eggplant seed are planted in 2.25" square pots, six per pot, and maintained in growth chambers set at 23° C., 80% humidity, and 12 h photoperiod. When the plants are at the cotyledon stage (14-18 days afterplanting), the plants are sprayed with 1.5 mL/pot of 500, 100 or 20 ppm 2:3 acetone:water (with 0.5% Tween® 20) formulations of the test compounds.
Twenty-four hours later the plants are inoculated with Botrytis cinerea, approximately 0.5 mL/pot of a 4×10^6 spore/mL suspension. The plantes are incubated at 23° C. and 100% humidity for 3-4 days, at which time disease control ratings are made based on presence and severity of Botrytis lesions.

Test [2] deals with Botrytis cinerea. In words: Vine grey mold (grape berries). The format is in vivo. The following applies: average of six berries, 7-10 days; for pest or weed control at 50 ppm: grape berries treated with 50 ppm, read-out: % DISEASE CONTROL 50 ppm; for pest or weed control at 200 ppm: grape berries treated with 200 ppm, read-out: % DISEASE CONTROL 200 ppm. On the procedure:
Grape berries, which have been washed and surfaced sterilized in 70% ethanol for one minute, are, except for the negative controls, treated with 0.2 mL of a 2:3 acetone/water formulation (containing 0.05% Tween® 20) of 200 or 50 ppm of the test compounds and placed one per well in 12-well plates. Six berries per treatment level are used. Twenty-four hours later each berry is inoculated with Botrytis cinerea conidia, 0.2 mL of 10^6 spores/mL suspension. The plates are incubated at 20° C. with a 12 hours photoperiod for 7-10 days and the percent surface area infected with the disease is determined for each replicate using the values of 0, 1, 2, 5, 7, 10, 15, 20, 25, 30, 35, 40, 45, 50, 55, 60, 65, 70, 75, 80, 85, 90, 95, and 100%. Treatment means are calculated and percent disease control is determined by the formula [(control mean - treatment mean)/control means]×100.
Some of the compounds have been tested more than once and the results shown are the average of the number of tests reported.

The subject of the next test is Rhizoctonia solani. In words: Rice sheath blight. The format is in vivo. More on the design: scale not given here. To be noted: inoculated two days later, rated after 7 days, average of five plants; for Disease Control Rating at 0.02 mg/mL: foliage and soil sprayed with 0.02 mg/mL; for Disease Control Rating at 0.1 mg/mL: foliage and soil sprayed with 0.1 mg/mL; for Disease Control Rating at 0.5 mg/mL: foliage and soil sprayed with 0.5 mg/mL. On the procedure:
Rice plants, 11 to 15 days old, are grown in 7.65 cm^2 pots. Each plant in the treatment groups is treated by spraying both the foliage and the soil surface, each with 2 mL of a water/acetone/Tween®20 formulation containing 0.5, 0.1, or 0.02 mg/mL of Compound A. The pots are placed in flood trays which are filled with water to just below the soil line. Two days later, approximately two grams of Rhizoctonia solani inoculum, cultured on rice grain for four to eight weeks, is applied to the base of the rice plants in each pot. After 7 days in a 25° C. high humidity growth chamber, each plant is evaluated for the level of disease contro as compared to untreated controls by the following scale and the average of five plants per treatment level is calculated.

The next test has as its target T1, succinate dehydrogenase (Botrytis cinerea, UniProt A0A384J5E4+A0A384J8V8+A0A384JHJ5).
T1 construct: succinate-DCPIP reductase assay with KCN
In words: Enzyme inhibition: succinate dehydrogenase activity in Botrytis cinerea mitochondria (DCPIP reduction). The format is biochemical. To be noted: concentration required to inhibit the rate of DCPIP reduction by 50%; Botrytis cinerea isolate Nick mitochondria; read-out: I50 (μM conc.). On the procedure: Mitochondria were isolated by a method adapted from G.A. White [Biochem. Biophys. Res. Commun. 44: 1212, 1971]. Twenty to thirty grams of Botrytis cinerea isolate Nick were resuspended in 250 mL 0.25M sucrose, 5mM Na4 EDTA, pH 7.0 (+) 0.15% (w/v) bovine serum albumin (BSA) and placed in a Bead Beater chamber (Biospec Products, Bartlesville, Ok.). Zirconium oxide beads (0.5mm) were added to finish filling the chamber. Four 30 second beats separated by 2 minute temperature equilibration periods in the cold were used to break the mycelia. A crude mitochondrial preparation was harvested from the homogenate by differential centrifugation at 4° C. and resuspended in BSA-free sucrose/EDTA media and used for SDH assays.
The succinate dehydrogenase activity was measured at 600 nm in 50 mM potassium phosphate, pH 7.2, 1 mM KCN, 45 μM 2,6-dichlorophenolindophenol (DCPIP) and 17 mM disodium succinate (final volume, 1 mL) with a Perkin-Elmer Lambda 7 ultraviolet-visible spectrophotometer. The test compounds were added as acetone solutions (final concentration of acetone, 1% (v/v)). The mitochondrial preparatons were used to initiate the reaction. All rates were corrected for endogenous activities minus succinate. Semilog plots of percentage inhibition versus test compound concentration were used to determine inhibition expressed as I50 (μM) which is the concentration required to inhibit the rate of DCPIP reduction by 50%. The commercial fungicide carboxin was used as standard throughout.

Each structure is given as a SMILES string.

T1 sequence (A0A384J5E4 1-300): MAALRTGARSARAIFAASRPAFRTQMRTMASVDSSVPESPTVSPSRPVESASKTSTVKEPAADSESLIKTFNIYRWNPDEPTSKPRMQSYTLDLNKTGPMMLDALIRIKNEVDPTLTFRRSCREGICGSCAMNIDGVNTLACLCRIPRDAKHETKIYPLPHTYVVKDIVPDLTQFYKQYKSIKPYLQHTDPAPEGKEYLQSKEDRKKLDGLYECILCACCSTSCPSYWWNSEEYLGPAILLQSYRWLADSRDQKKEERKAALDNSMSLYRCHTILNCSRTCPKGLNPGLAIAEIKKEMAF
T1 sequence (A0A384J8V8 1-189): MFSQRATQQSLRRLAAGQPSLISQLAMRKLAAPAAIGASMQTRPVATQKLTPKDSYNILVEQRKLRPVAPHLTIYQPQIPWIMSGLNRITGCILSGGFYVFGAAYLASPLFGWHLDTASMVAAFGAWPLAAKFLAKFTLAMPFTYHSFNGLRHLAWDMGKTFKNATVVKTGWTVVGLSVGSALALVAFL
T1 sequence (A0A384JHJ5 1-192): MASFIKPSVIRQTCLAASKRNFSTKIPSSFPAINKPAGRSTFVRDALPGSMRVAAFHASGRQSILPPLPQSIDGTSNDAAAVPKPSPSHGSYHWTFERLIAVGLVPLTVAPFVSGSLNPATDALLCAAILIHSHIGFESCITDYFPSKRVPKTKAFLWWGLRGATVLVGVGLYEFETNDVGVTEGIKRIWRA
T1 sequence (A0A384K456 1-647 partner): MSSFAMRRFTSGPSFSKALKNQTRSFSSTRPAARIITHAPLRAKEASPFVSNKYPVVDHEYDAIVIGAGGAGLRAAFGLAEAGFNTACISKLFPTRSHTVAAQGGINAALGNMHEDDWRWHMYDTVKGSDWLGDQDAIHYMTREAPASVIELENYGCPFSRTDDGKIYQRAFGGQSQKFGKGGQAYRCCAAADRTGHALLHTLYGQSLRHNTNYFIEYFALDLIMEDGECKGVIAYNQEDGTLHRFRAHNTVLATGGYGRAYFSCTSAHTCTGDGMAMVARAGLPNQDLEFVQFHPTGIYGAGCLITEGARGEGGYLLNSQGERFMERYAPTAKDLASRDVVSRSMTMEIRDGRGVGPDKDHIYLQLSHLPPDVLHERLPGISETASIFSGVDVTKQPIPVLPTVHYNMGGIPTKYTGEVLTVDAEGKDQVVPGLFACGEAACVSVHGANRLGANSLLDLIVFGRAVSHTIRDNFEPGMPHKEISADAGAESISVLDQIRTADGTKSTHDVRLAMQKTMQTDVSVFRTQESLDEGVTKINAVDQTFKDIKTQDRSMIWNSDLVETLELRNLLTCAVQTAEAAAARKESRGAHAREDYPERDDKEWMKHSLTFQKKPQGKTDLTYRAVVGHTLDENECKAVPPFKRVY

In the case of `Cn1cc(C(=O)Nc2ccccc2C2CCCCC2)c(C(F)(F)F)n1` [Example 2, 1H-pyrazole-4-carboxamide, N-(2-cyclohexylphenyl)-1-methyl-3-(trifluoromethyl)-], in the test with Botrytis cinerea [1], the “Disease Control Rating at 20 ppm” value worked out at 1, the “Disease Control Rating at 100 ppm” value came to 3 and the “Disease Control Rating at 500 ppm” value was determined as 3. In the test on Botrytis cinerea [2], the pest or weed control at 50 ppm stood at 84% and the pest or weed control at 200 ppm was found to be 87%. In the test on Rhizoctonia solani, the “Disease Control Rating at 0.02 mg/mL” value is reported as 3, the “Disease Control Rating at 0.1 mg/mL” value is 3 and the “Disease Control Rating at 0.5 mg/mL” value was 3. Moreover, the IC50 at succinate dehydrogenase was found to be 0.012 µM.
As for `Cc1nn(C)cc1C(=O)Nc1ccccc1C1CCCCC1` [Example 3, 1H-pyrazole-4-carboxamide, N-(2-cyclohexylphenyl)-1,3-dimethyl-], in the test on Botrytis cinerea [1], the “Disease Control Rating at 20 ppm” value stood at 0, the “Disease Control Rating at 100 ppm” value is 1 and the “Disease Control Rating at 500 ppm” value is listed as 2. Besides, in the test on Botrytis cinerea [2], the pest or weed control at 50 ppm is 10% and the pest or weed control at 200 ppm was determined as 62%. In the test with Rhizoctonia solani, the “Disease Control Rating at 0.5 mg/mL” value is listed as 0. The IC50 on succinate dehydrogenase came out at 0.027 µM.
On to `Cn1cc(C(=O)Nc2ccccc2C2CCCCC2)c(C#N)n1` [Example 4, 1H-pyrazole-4-carboxamide, 3-cyano-N-(2-cyclohexylphenyl)-1-methyl-], for which, in the test with Botrytis cinerea [1], the “Disease Control Rating at 20 ppm” value is listed as 1, the “Disease Control Rating at 100 ppm” value was 2 and the “Disease Control Rating at 500 ppm” value turned out to be 2. Besides, in the test with Botrytis cinerea [2], the pest or weed control at 50 ppm is 29% and the pest or weed control at 200 ppm worked out at 58%. Further, in the test with Rhizoctonia solani, the “Disease Control Rating at 0.5 mg/mL” value worked out at 0. In addition, on succinate dehydrogenase, the IC50 came to 0.065 µM.
`Cn1cc(C(=O)Nc2ccccc2C2CCCCC2)c(Br)n1` [Example 5, 1H-pyrazole-4-carboxamide, 3-bromo-N-(2-cyclohexylphenyl)-1-methyl-]: in the test on Botrytis cinerea [1], the “Disease Control Rating at 20 ppm” value is recorded as 1, the “Disease Control Rating at 100 ppm” value came to 3 and the “Disease Control Rating at 500 ppm” value is recorded as 3. In addition, in the test with Botrytis cinerea [2], the pest or weed control at 50 ppm was 50% and the pest or weed control at 200 ppm amounted to 40%. The “Disease Control Rating at 0.5 mg/mL” value in the test on Rhizoctonia solani came to 0. The IC50 on succinate dehydrogenase was found to be 0.0066 µM.
With `Cc1nn(C)cc1C(=O)Nc1ccccc1C1CCCC1` [Example 6, 1H-pyrazole-4-carboxamide, N-(2-cyclopentylphenyl)-1,3-dimethyl-], the “Disease Control Rating at 500 ppm” value in the test with Botrytis cinerea [1] is 1. Further, in the test on Botrytis cinerea [2], the pest or weed control at 50 ppm was determined as 0% and the pest or weed control at 200 ppm turned out to be 20%. Also, in the test with Rhizoctonia solani, the “Disease Control Rating at 0.02 mg/mL” value is given as 0, the “Disease Control Rating at 0.1 mg/mL” value is 0 and the “Disease Control Rating at 0.5 mg/mL” value stood at 1. The IC50 on succinate dehydrogenase is 0.25 µM.
For the molecule `Cn1cc(C(=O)Nc2ccccc2C2CCCC2)c(C(F)F)n1` [Example 7, 1H-pyrazole-4-carboxamide, N-(2-cyclopentylphenyl)-3-(difluoromethyl)-1-methyl-], the “Disease Control Rating at 500 ppm” value in the test with Botrytis cinerea [1] was 0. In addition, in the test on Botrytis cinerea [2], the pest or weed control at 50 ppm turned out to be 72% and the pest or weed control at 200 ppm stood at 86%. In addition, the “Disease Control Rating at 0.5 mg/mL” value in the test on Rhizoctonia solani is 1. Besides, the IC50 at succinate dehydrogenase was 0.0072 µM.
The matching figures for `Cn1cc(C(=O)Nc2ccccc2C2CCCC2)c(C(F)(F)F)n1` [Example 8, 1H-pyrazole-4-carboxamide, N-(2-cyclopentylphenyl)-1-methyl-3-(trifluoromethyl)-]: 0, 37%, 83%, 0 and 0.016 µM.
Consider `Cn1cc(C(=O)Nc2ccccc2C2CCCCCC2)c(C(F)F)n1` [Example 9, 1H-pyrazole-4-carboxamide, N-(2-cycloheptylphenyl)-3-(difluoromethyl)-1-methyl-], for which, in the test on Botrytis cinerea [1], the “Disease Control Rating at 20 ppm” value is given as 0, the “Disease Control Rating at 100 ppm” value is listed as 2 and the “Disease Control Rating at 500 ppm” value was determined as 2. Further, in the test on Botrytis cinerea [2], the pest or weed control at 50 ppm amounted to 94% and the pest or weed control at 200 ppm stood at 89%. Moreover, in the test with Rhizoctonia solani, the “Disease Control Rating at 0.02 mg/mL” value is 3, the “Disease Control Rating at 0.1 mg/mL” value stood at 3 and the “Disease Control Rating at 0.5 mg/mL” value came out at 3. Moreover, at succinate dehydrogenase, the IC50 came to 0.0019 µM.
As to `Cn1cc(C(=O)Nc2ccccc2C2CCCCCC2)c(C(F)(F)F)n1` [Example 10, 1H-pyrazole-4-carboxamide, N-(2-cycloheptylphenyl)-1-methyl-3-(trifluoromethyl)-], in the test on Botrytis cinerea [1], the “Disease Control Rating at 20 ppm” value came out at 2, the “Disease Control Rating at 100 ppm” value is 2 and the “Disease Control Rating at 500 ppm” value is recorded as 2. In addition, in the test with Botrytis cinerea [2], the pest or weed control at 50 ppm is 87% and the pest or weed control at 200 ppm worked out at 85%. In addition, in the test with Rhizoctonia solani, the “Disease Control Rating at 0.02 mg/mL” value is given as 2, the “Disease Control Rating at 0.1 mg/mL” value is given as 3 and the “Disease Control Rating at 0.5 mg/mL” value amounted to 3. Further, the IC50 at succinate dehydrogenase was found to be 0.003 µM.
Regarding `Cn1cc(C(=O)Nc2ccc(F)cc2C2CCCCC2)c(C(F)F)n1` [Example 11, 1H-pyrazole-4-carboxamide, N-(2-cyclohexyl-4-fluorophenyl)-3-(difluoromethyl)-1-methyl-], in the test with Botrytis cinerea [1], the “Disease Control Rating at 20 ppm” value amounted to 2, the “Disease Control Rating at 100 ppm” value turned out to be 2 and the “Disease Control Rating at 500 ppm” value is 3. Further, in the test on Botrytis cinerea [2], the pest or weed control at 50 ppm stood at 75% and the pest or weed control at 200 ppm is 92%. In addition, in the test with Rhizoctonia solani, the “Disease Control Rating at 0.02 mg/mL” value turned out to be 1, the “Disease Control Rating at 0.1 mg/mL” value was 3 and the “Disease Control Rating at 0.5 mg/mL” value is given as 3. Further, the IC50 on succinate dehydrogenase worked out at 0.0054 µM.
On to `Cn1cc(C(=O)Nc2ccc(F)cc2C2CCCCC2)c(C(F)(F)F)n1` [Example 12, 1H-pyrazole-4 carboxamide, N-(2-cyclohexyl-4-fluorophenyl)-1-methyl-3-(trifluoromethyl)-], for which, in the test on Botrytis cinerea [1], the “Disease Control Rating at 20 ppm” value amounted to 1, the “Disease Control Rating at 100 ppm” value was 1 and the “Disease Control Rating at 500 ppm” value was 3. In addition, in the test with Botrytis cinerea [2], the pest or weed control at 50 ppm is 58% and the pest or weed control at 200 ppm was 59%. The “Disease Control Rating at 0.5 mg/mL” value in the test with Rhizoctonia solani was determined as 2. Moreover, at succinate dehydrogenase, the IC50 came out at 0.0089 µM.
As for `Cc1nn(C)cc1C(=O)Nc1ccccc1C1CCCCCC1` [Example 13, 1H-pyrazole-4-carboxamide, N-(2-cycloheptylphenyl)-1,3-dimethyl-], in the test with Botrytis cinerea [1], the “Disease Control Rating at 20 ppm” value is 1, the “Disease Control Rating at 100 ppm” value turned out to be 1 and the “Disease Control Rating at 500 ppm” value was 3. Moreover, in the test on Botrytis cinerea [2], the pest or weed control at 50 ppm was found to be 63% and the pest or weed control at 200 ppm was 66%. Further, in the test on Rhizoctonia solani, the “Disease Control Rating at 0.02 mg/mL” value is on record as 2, the “Disease Control Rating at 0.1 mg/mL” value turned out to be 3 and the “Disease Control Rating at 0.5 mg/mL” value stood at 3. For the same molecule, on succinate dehydrogenase, the IC50 was determined as 0.011 µM.

For the origin of these results see US5223526A, “Pyrazole carboxanilide fungicides and use” (Monsanto Company, priority 1992, dated 1993).
